The structures appear in SMILES notation.

One assay has as its system HCV replicon. The assay is described as follows: HCV replicon replication assay (NPT ELISA) in Huh-7 replicon-containing cells. It counts as cell-based. The conditions noted are these: Hepatitis C virus, 72 h; HCV replicon in Huh-7 cells, three days incubation; read-out: EC50. A digest of the protocol: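 Huh-7 cells carrying a bicistronic HCV replicon (HCV-IRES-neo, EMCV-IRES-driven NS3–NS5B, 3′-NTR) were seeded at 6000-7500 cells/well, grown 24 h to 60-70% confluence, then treated with graded compound concentrations. Replication was read as NPT level by capture ELISA (rabbit anti-NPTII, Eu-N1 secondary); interferon alpha served as positive control.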
On to `C=C[C@@H]1C[C@]1(NC(=O)[C@@H]1C[C@@H](Oc2cc(-c3csc(NC(C)C)n3)nc3cc(OC)ccc23)CN1C(=O)[C@@H](CC(=O)N1CCOCC1)C(C)(C)C)C(=O)NS(=O)(=O)C1CC1` [Compound 100, (2S,4R)-1-((S)-2-tert-butyl-4-morpholino-4-oxobutanoyl)-N-((1R,2S)-1-(cyclopropylsulfonyl-carbamoyl)-2-vinylcyclopropyl)-4-(2-(2-(isopropyl-amino)thiazol-4-yl)-7-methoxyquinolin-4-yloxy)pyrrolidine-2-carboxamide], for which the EC50 was less than 1 µM.
Regarding `C=C[C@@H]1C[C@]1(NC(=O)[C@@H]1C[C@@H](NC(=O)n2c3ccccc3c3ccccc32)CN1C(=O)[C@@H](CC(=O)N1CCCC(F)(F)C1)C(C)(C)C)C(=O)NS(=O)(=O)C1CC1` [Compound 178, N-((3R,5S)-1-((S)-2-tert-butyl-4-(3,3-difluoropiperidin-1-yl)-4-oxobutanoyl)-5-((1R,2S)-1-(cyclo-propylsulfonyl-carbamoyl)-2-vinylcyclopropyl-carbamoyl)pyrrolidin-3-yl)-9H-carbazole-9-carboxamide], the EC50 is less than 1 µM.
The same measure, in the same setting: as for `C=C[C@@H]1C[C@@]1(NC(=O)[C@@H]1C[C@@H](Oc2cc(-c3ccccc3)nc3cc(OC)ccc23)CN1C(=O)[C@@H](CC(=O)N1CCCCC1)C(C)(C)C)C(=O)NS(=O)(=O)C1CC1` [Compound 38, (2S,4R)-1-((S)-2-tert-butyl-4-oxo-4-(piperidin-1-yl)butanoyl)-N-((1S,2S)-1-(cyclopropylsulfonyl-carbamoyl)-2-vinylcyclopropyl)-4-(7-methoxy-2-phenylquinolin-4-yloxy)pyrrolidine-2-carboxamide], the figure is less than 1 µM.
Still for that read-out and setting: with `C=C[C@@H]1C[C@]1(NC(=O)[C@@H]1C[C@@H](Oc2cc(-c3ccccc3)nc3cc(OC)ccc23)CN1C(=O)[C@@H](CC(=O)N1CCCC1C(F)(F)F)C(C)(C)C)C(=O)NS(=O)(=O)C1CC1` (stereo partly drawn) [Compound 176, (2S,4R)-1-((2S)-2-tert-butyl-4-oxo-4-(2-(trifluoro-methyl)pyrrolidin-1-yl)butanoyl)-N-((1R,2S)-1-(cyclopropylsulfonyl-carbamoyl)-2-vinylcyclopropyl)-4-(7-methoxy-2-phenylquinolin-4-yloxy)pyrrolidine-2-carboxamide] the figure was less than 1 µM; with `C=C[C@@H]1C[C@]1(NC(=O)[C@@H]1C[C@@H](Oc2nc3ccccc3nc2-c2ccccc2)CN1C(=O)[C@@H](CC(=O)N1CCCCC1)C(C)(C)C)C(=O)NS(=O)(=O)C1CC1` [Compound 133, (2S,4R)-1-((S)-2-tert-butyl-4-oxo-4-(piperidin-1-yl)butanoyl)-N-((1R,2S)-1-(cyclo-propylsulfonyl-carbamoyl)-2-vinyl-cyclopropyl)-4-(3-phenylquinoxalin-2-yloxy)pyrrolidine-2-carboxamide], 1 to 10 µM.
Same read-out and setting: with `C=C[C@@H]1C[C@]1(NC(=O)[C@@H]1C[C@@H](Oc2cc(-c3ccccn3)nc3cc(OC)ccc23)CN1C(=O)[C@@H](CC(=O)N1CCC(C(F)(F)F)CC1)C(C)(C)C)C(=O)NS(=O)(=O)C1CC1` [Compound 215, (2S,4R)-1-((S)-2-tert-butyl-4-oxo-4-(4-(trifluoro-methyl)piperidin-1-yl)butanoyl)-N-((1R)-1-(cyclopropyl-sulfonylcarbamoyl)-2-vinylcyclopropyl)-4-(7-methoxy-2-(pyridin-2-yl)quinolin-4-yloxy)pyrrolidine-2-carboxamide] the figure was less than 1 µM.
On to `C=CC1C[C@]1(NC(=O)[C@@H]1C[C@@H](Oc2cc(-c3ccccc3)nc3cc(OC)ccc23)CN1C(=O)[C@@H](CC(=O)N1CCCC(C(=O)N(CC)CC)C1)C(C)(C)C)C(=O)NS(=O)(=O)C1CC1` (stereo partly drawn) [Compound 159, 1-((S)-3-((2S,4R)-2-((1R,2S)-1-(cyclo-propylsulfonyl-carbamoyl)-2-vinyl-cyclopropyl-carbamoyl)-4-(7-methoxy-2-phenylquinolin-4-yloxy)pyrrolidine-1-carbonyl)-4,4-dimethylpentanoyl)-N,N-diethylpiper-idine-3-carboxamide], for which the EC50 was less than 1 µM.
The same measure, in the same setting: as for `C=C[C@@H]1C[C@]1(NC(=O)[C@@H]1C[C@@H](NC(=O)n2c3ccccc3c3ccccc32)CN1C(=O)[C@@H](CC(=O)N1CCC(C(F)(F)F)CC1)C(C)(C)C)C(=O)NS(=O)(=O)C1CC1` [Compound 190, N-((3R,5S)-1-((S)-2-tert-butyl-4-oxo-4-(4-(trifluoromethyl)piper-idin-1-yl)butanoyl)-5-((1R,2S)-1-(cyclopropylsulfonyl-carbamoyl)-2-vinylcyclopropyl-carbamoyl)pyrrolidin-3-yl)-9H-carbazole-9-carboxamide], the figure is less than 1 µM; as for `C=C[C@@H]1C[C@]1(NC(=O)[C@@H]1C[C@@H](Oc2cc(-c3nc(C(C)C)cs3)nc3c(C)c(OC)ccc23)CN1C(=O)[C@@H](CC(=O)N1CCCC(F)(F)C1)C(C)(C)C)C(=O)NS(=O)(=O)C1CC1` [Compound 248, (2S,4R)-1-((S)-2-tert-butyl-4-(3,3-difluoropiperidin-1-yl)-4-oxobutanoyl)-N-((2S)-1-(cyclopropyl-sulfonylcarbamoyl)-2-vinylcyclopropyl)-4-(2-(4-isopropylthiazol-2-yl)-7-methoxy-8-methylquinolin-4-yloxy)pyrrolidine-2-carboxamide], less than 1 µM; as for `C=C[C@@H]1C[C@]1(NC(=O)[C@@H]1C[C@@H](Oc2cc(-c3ccccc3)nc3cc(OC)ccc23)CN1C(=O)[C@@H](CC(=O)N1CCCCC1)C(C)(C)C)C(=O)NS(=O)(=O)C1(Cl)CC1` [Compound 158, (2S,4R)-1-((S)-2-tert-butyl-4-oxo-4-(piperidin-1-yl)butanoyl)-N-((1R,2S)-1-(1-chlorocyclopropyl-sulfonyl-carbamoyl)-2-vinylcyclopropyl)-4-(7-methoxy-2-phenylquinolin-4-yloxy)pyrrolidine-2-carboxamide], less than 1 µM.
On the same count and under the same terms, with `C=C[C@H]1C[C@]1(NC(=O)[C@@H]1C[C@@H](Oc2cc(-c3ccccc3)nc3cc(OC)ccc23)CN1C(=O)[C@H](CC(=O)N1CCCCC1)CC1CCCCC1)C(=O)NS(=O)(=O)C1CC1` [Compound 60, (2S,4R)-1-((S)-2-(cyclohexylmethyl)-4-oxo-4-(piperidin-1-yl)butanoyl)-N-((1R,2R)-1-(cyclopropyl-sulfonylcarbamoyl)-2-vinylcyclopropyl)-4-(7-methoxy-2-phenylquinolin-4-yloxy)pyrrolidine-2-carboxamide] the figure was 1 to 10 µM; with `C=C[C@@H]1C[C@]1(NC(=O)[C@@H]1C[C@@H](Oc2cc(-c3ccccc3)nc3cc(OC)ccc23)CN1C(=O)[C@@H](CC(=O)N1CCOCC1)C(C)(C)C)C(=O)NS(=O)(=O)C1CC1` [Compound 48, (2S,4R)-1-((S)-2-tert-butyl-4-morpholino-4-oxobutanoyl)-N-((1R,2S)-1-(cyclo-propylsulfonyl-carbamoyl)-2-vinylcyclopropyl)-4-(7-methoxy-2-phenylquinolin-4-yloxy)pyrrolidine-2-carboxamide], less than 1 µM; with `C=C[C@@H]1C[C@]1(NC(=O)[C@@H]1C[C@@H](OC(=O)Nc2ccc(-c3ccccc3)cc2)CN1C(=O)[C@@H](CC(=O)N1CCCCC1)C(C)(C)C)C(=O)NS(=O)(=O)C1CC1` [Compound 61, (3R,5S)-1-((S)-2-tert-butyl-4-oxo-4-(piperidin-1-yl)butanoyl)-5-((1R,2S)-1-(cyclopropyl-sulfonylcarbamoyl)-2-vinylcyclopropyl-carbamoyl)pyrrolidin-3-yl biphenyl-4-ylcarbamate], 1 to 10 µM.
The same measure, in the same setting: as for `CC[C@H](NC(=O)[C@@H]1C[C@@H](Oc2cc(-c3ccccc3)nc3cc(OC)ccc23)CN1C(=O)[C@@H](CC(=O)N1CCCCC1)C(C)(C)C)C(=O)NS(=O)(=O)C1CC1` [Compound 109, (2S,4R)-1-((S)-2-tert-butyl-4-oxo-4-(piperidin-1-yl)butanoyl)-N-((S)-1-(cyclopropane-sulfonamido)-1-oxobutan-2-yl)-4-(7-methoxy-2-phenylquinolin-4-yloxy)pyrrolidine-2-carboxamide], the figure is 1 to 10 µM; as for `C=C[C@@H]1C[C@]1(NC(=O)[C@@H]1C[C@@H](Oc2cc(-c3ccccc3)nc3ccccc23)CN1C(=O)[C@@H](CC(=O)N1CCCCC1)C(C)(C)C)C(=O)NS(=O)(=O)C1CC1` [Compound 225, (2S,4R)-1-((S)-2-tert-butyl-4-oxo-4-(piperidin-1-yl)butanoyl)-N-((1R)-1-(cyclopropyl-sulfonylcarbamoyl)-2-vinylcyclopropyl)-4-(2-phenylquinolin-4-yloxy)pyrrolidine-2-carboxamide], less than 1 µM.
As for `C=C[C@@H]1C[C@]1(NC(=O)[C@@H]1C[C@@H](Oc2cc(-c3ccccc3)nc3cc(OC)ccc23)CN1C(=O)[C@@H](CC(=O)N1CCC(c2ccccc2)CC1)C(C)(C)C)C(=O)NS(=O)(=O)C1CC1` [Compound 182, (2S,4R)-1-((S)-2-tert-butyl-4-oxo-4-(4-phenylpiperidin-1-yl)butanoyl)-N-((1R,2S)-1-(cyclopropylsulfonyl-carbamoyl)-2-vinylcyclopropyl)-4-(7-methoxy-2-phenylquinolin-4-yloxy)pyrrolidine-2-carboxamide], the EC50 was less than 1 µM.
Still for that read-out and setting: with `C=C[C@@H]1C[C@]1(NC(=O)[C@@H]1C[C@@H](OC(=O)Nc2ccccc2C(=O)OC)CN1C(=O)[C@@H](CC(=O)N1CCCCC1)C(C)(C)C)C(=O)NS(=O)(=O)C1CC1` [Compound 93, methyl 2-(((3R,5S)-1-((S)-2-tert-butyl-4-oxo-4-(piperidin-1-yl)butanoyl)-5-((1R,2S)-1-(cyclo-propylsulfonyl-carbamoyl)-2-vinylcyclopropyl-carbamoyl)pyrrolidin-3-yloxy)carbonyl-amino)benzoate] the figure was less than 1 µM.

The same assay, now with this note: Hepatitis C virus, Huh-7.
`C=C[C@@H]1C[C@@]1(NC(=O)[C@@H]1C[C@@H](Oc2cc(-c3ccccc3)nc3cc(OC)ccc23)CN1C(=O)[C@@H](CC(=O)N1CCCCC1)C(C)(C)C)C(=O)NS(=O)(=O)C1CC1` [Compound 38, (2S,4R)-1-((S)-2-tert-butyl-4-oxo-4-(piperidin-1-yl)butanoyl)-N-((1S,2S)-1-(cyclopropylsulfonyl-carbamoyl)-2-vinylcyclopropyl)-4-(7-methoxy-2-phenylquinolin-4-yloxy)pyrrolidine-2-carboxamide] yielded an EC50 of no more than 10 µM.

The values above are taken from patent US9133115B2 (ACHILLION PHARMACEUTICALS, INC., priority 2008, dated 2015).
